Measured values reported in patent US8193160B2 (priority 2006, dated 2012).

What was measured:
[1] = tested on: Magnaporthe vegetative mycelia, abc3Δ mutant; format: cell-based
abc3Δ mutant = format: cell-based, Magnaporthe grisea

Compound	Minimum Inhibitory Concentration (MIC), abc3Δ [1] [µg/mL]	growth under oxidative stress (abc3Δ mutant)
CCCCNC(=O)n1c(NC(=O)OC)nc2ccccc21 [Benomyl]	2	
C[C@H]1CCC/C=C/[C@@H]2C[C@H](O)C[C@H]2[C@H](O)/C=C/C(=O)O1 [Brefeldin A]	40	
OC(Cn1cncn1)(Cn1cncn1)c1ccc(F)cc1F [Fluconazole]	2500	
CCC(=C/[C@H](C)C/C=C/C(C)=C/[C@@H](C)C(=O)[C@@H](C)[C@H](O)[C@@H](C)C/C(C)=C/C(=O)O)/C=C/[C@@H]1OC(=O)C=C[C@@H]1C [Leptomycin B]	0.0075	
CC(C)[C@@H]1NC(=O)[C@H](C)OC(=O)[C@@H](C(C)C)NC(=O)[C@@H](C(C)C)OC(=O)[C@H](C(C)C)NC(=O)[C@H](C)OC(=O)[C@@H](C(C)C)NC(=O)[C@@H](C(C)C)OC(=O)[C@H](C(C)C)NC(=O)[C@H](C)OC(=O)[C@@H](C(C)C)NC(=O)[C@@H](C(C)C)OC1=O [Valinomycin]	3	
OO [hydrogen peroxide]		lethal
Actinomycin D	3.5	
Gramicidin D	180	
